Results reported in patent US20220401439A1, “INTRANASAL PHARMACEUTICAL COMPOSITIONS OF CGRP INHIBITORS” (Biohaven Pharmaceutical Holding Company Ltd., priority 2019, published 2022).

Tested on: patients receiving acute treatment of migraine
Experiment: Phase 2/3 trial BHV3500-201 (Study 201), efficacy in acute treatment of migraine
Assay type: in vivo, human
Conditions: for Sustained pain freedom from 2 to 48 hours postdose, Stratified Percentage Difference (Zavegepant-Placebo) / Sustained pain relief from 2 to 24 hours postdose, Stratified Percentage Difference (Zavegepant-Placebo) / Sustained pain relief from 2 to 48 hours postdose, Stratified Percentage Difference (Zavegepant-Placebo) / Pain relief at 2 hours postdose, Stratified Percentage Difference (Zavegepant-Placebo) / Pain relief at 30 minutes postdose, Stratified Percentage Difference (Zavegepant-Placebo) / Pain relief at 60 minutes postdose, Stratified Percentage Difference (Zavegepant-Placebo) / Rescue medication use within 24 hours postdose, Stratified Percentage Difference (Zavegepant-Placebo) / Sustained pain freedom from 2 to 24 hours postdose, Stratified Percentage Difference (Zavegepant-Placebo): mITT; for Sustained pain freedom from 2 to 48 hours postdose, Stratified Percentage Difference (Zavegepant-Placebo) / Sustained pain relief from 2 to 24 hours postdose, Stratified Percentage Difference (Zavegepant-Placebo) / Sustained pain relief from 2 to 48 hours postdose, Stratified Percentage Difference (Zavegepant-Placebo) / Pain relief at 2 hours postdose, Stratified Percentage Difference (Zavegepant-Placebo) / Return to normal function at 30 minutes postdose, Stratified Percentage Difference (Zavegepant-Placebo) / Return to normal function at 60 minutes postdose, Stratified Percentage Difference (Zavegepant-Placebo) / Return to normal function at 2 hours postdose, Stratified Percentage Difference (Zavegepant-Placebo) / Pain relapse from 2 to 48 hours postdose, Stratified Percentage Difference (Zavegepant-Placebo) / Nausea freedom at 2 hours postdose, Stratified Percentage Difference (Zavegepant-Placebo) / Phonophobia freedom at 2 hours postdose, Stratified Percentage Difference (Zavegepant-Placebo) / Photophobia freedom at 2 hours postdose, Stratified Percentage Difference (Zavegepant-Placebo) / Pain relief at 30 minutes postdose, Stratified Percentage Difference (Zavegepant-Placebo) / Pain relief at 60 minutes postdose, Stratified Percentage Difference (Zavegepant-Placebo) / Rescue medication use within 24 hours postdose, Stratified Percentage Difference (Zavegepant-Placebo) / Sustained pain freedom from 2 to 24 hours postdose, Stratified Percentage Difference (Zavegepant-Placebo): CMH weighting; for Pain relief at 2 hours postdose, Stratified Percentage Difference (Zavegepant-Placebo): stratified by prophylactic migraine medication use; for Return to normal function at 30 minutes postdose, Stratified Percentage Difference (Zavegepant-Placebo) / Return to normal function at 60 minutes postdose, Stratified Percentage Difference (Zavegepant-Placebo) / Return to normal function at 2 hours postdose, Stratified Percentage Difference (Zavegepant-Placebo): subjects with functional disability at onset; for Pain relapse from 2 to 48 hours postdose, Stratified Percentage Difference (Zavegepant-Placebo): subjects with pain freedom at 2 hours postdose; for Nausea freedom at 2 hours postdose, Stratified Percentage Difference (Zavegepant-Placebo) / Phonophobia freedom at 2 hours postdose, Stratified Percentage Difference (Zavegepant-Placebo) / Photophobia freedom at 2 hours postdose, Stratified Percentage Difference (Zavegepant-Placebo): subjects with symptom present at onset; for Pain relief at 30 minutes postdose, n/N (%) / Pain relief at 60 minutes postdose, n/N (%) / Rescue medication use within 24 hours postdose, n/N (%) / Sustained pain freedom from 2 to 24 hours postdose, n/N (%) / Sustained pain freedom from 2 to 48 hours postdose, n/N (%) / Sustained pain relief from 2 to 24 hours postdose, n/N (%) / Sustained pain relief from 2 to 48 hours postdose, n/N (%) / Pain relief at 2 hours postdose, n/N (%): mITT subjects; for Return to normal function at 30 minutes postdose, n/N (%) / Return to normal function at 60 minutes postdose, n/N (%) / Return to normal function at 2 hours postdose, n/N (%): mITT subjects with functional disability at on-study migraine attack onset; for Pain relapse from 2 to 48 hours postdose, n/N (%): mITT subjects with pain freedom at 2 hours postdose; for Nausea freedom at 2 hours postdose, n/N (%) / Phonophobia freedom at 2 hours postdose, n/N (%) / Photophobia freedom at 2 hours postdose, n/N (%): mITT subjects with symptom present at on-study migraine attack onset

Cc1cc(C[C@@H](NC(=O)N2CCC(c3cc4ccccc4[nH]c3=O)CC2)C(=O)N2CCN(C3CCN(C)CC3)CC2)cc2cn[nH]c12 [Zavegepant, (R)—N-(3-(7-methyl-1H-indazol-5-yl)-1-(4-(1-methylpiperidin-4-yl)piperazin-1-yl)-1-oxopropan-2-yl)-4-(2-oxo-1,2-dihydroquinolin-3-yl)piperidine-1-carboxamide]
Sustained pain freedom from 2 to 48 hours postdose, Stratified Percentage Difference (Zavegepant-Placebo) (zavegepant 5 mg vs placebo): 5.5% | Sustained pain relief from 2 to 24 hours postdose, Stratified Percentage Difference (Zavegepant-Placebo) (zavegepant 5 mg vs placebo): 8.0% | Sustained pain relief from 2 to 48 hours postdose, Stratified Percentage Difference (Zavegepant-Placebo) (zavegepant 5 mg vs placebo): 7.4% | Pain relief at 2 hours postdose, Stratified Percentage Difference (Zavegepant-Placebo) (zavegepant 5 mg vs placebo): 4.2% | Return to normal function at 30 minutes postdose, Stratified Percentage Difference (Zavegepant-Placebo) (zavegepant 5 mg vs placebo): 3.4% | Return to normal function at 60 minutes postdose, Stratified Percentage Difference (Zavegepant-Placebo) (zavegepant 5 mg vs placebo): 5.5% | Return to normal function at 2 hours postdose, Stratified Percentage Difference (Zavegepant-Placebo) (zavegepant 5 mg vs placebo): 4.3% | Pain relapse from 2 to 48 hours postdose, Stratified Percentage Difference (Zavegepant-Placebo) (zavegepant 5 mg vs placebo): −18.9% | Nausea freedom at 2 hours postdose, Stratified Percentage Difference (Zavegepant-Placebo) (zavegepant 5 mg vs placebo): 1.8% | Phonophobia freedom at 2 hours postdose, Stratified Percentage Difference (Zavegepant-Placebo) (zavegepant 5 mg vs placebo): 10.1% | Photophobia freedom at 2 hours postdose, Stratified Percentage Difference (Zavegepant-Placebo) (zavegepant 5 mg vs placebo): 4.6% | Pain relief at 30 minutes postdose, n/N (%) (zavegepant 5 mg): (26.6) % | Pain relief at 60 minutes postdose, n/N (%) (zavegepant 5 mg): (47.0) % | Rescue medication use within 24 hours postdose, n/N (%) (zavegepant 5 mg): (24.9) % | Sustained pain freedom from 2 to 24 hours postdose, n/N (%) (zavegepant 5 mg): (14.2) % | Sustained pain freedom from 2 to 48 hours postdose, n/N (%) (zavegepant 5 mg): (12.9) % | Sustained pain relief from 2 to 24 hours postdose, n/N (%) (zavegepant 5 mg): (43.7) % | Sustained pain relief from 2 to 48 hours postdose, n/N (%) (zavegepant 5 mg): (40.1) % | Return to normal function at 30 minutes postdose, n/N (%) (zavegepant 5 mg): (8.8) % | Return to normal function at 60 minutes postdose, n/N (%) (zavegepant 5 mg): (22.6) % | Return to normal function at 2 hours postdose, n/N (%) (zavegepant 5 mg): (31.7) % | Pain relapse from 2 to 48 hours postdose, n/N (%) (zavegepant 5 mg): (31.6) % | Nausea freedom at 2 hours postdose, n/N (%) (zavegepant 5 mg): (53.2) % | Phonophobia freedom at 2 hours postdose, n/N (%) (zavegepant 5 mg): (44.2) % | Photophobia freedom at 2 hours postdose, n/N (%) (zavegepant 5 mg): (35.0) % | Pain relief at 2 hours postdose, n/N (%) (zavegepant 10 mg intranasal single dose): (60.6) % | Pain relief at 30 minutes postdose, Stratified Percentage Difference (Zavegepant-Placebo) (zavegepant 10 mg vs placebo): 5.3% | Pain relief at 60 minutes postdose, Stratified Percentage Difference (Zavegepant-Placebo) (zavegepant 10 mg vs placebo): 4.2% | Rescue medication use within 24 hours postdose, Stratified Percentage Difference (Zavegepant-Placebo) (zavegepant 10 mg vs placebo): −1.1% | Sustained pain freedom from 2 to 24 hours postdose, Stratified Percentage Difference (Zavegepant-Placebo) (zavegepant 10 mg vs placebo): 6.1% | Sustained pain freedom from 2 to 48 hours postdose, Stratified Percentage Difference (Zavegepant-Placebo) (zavegepant 10 mg vs placebo): 6.3% | Sustained pain relief from 2 to 24 hours postdose, Stratified Percentage Difference (Zavegepant-Placebo) (zavegepant 10 mg vs placebo): 6.8% | Sustained pain relief from 2 to 48 hours postdose, Stratified Percentage Difference (Zavegepant-Placebo) (zavegepant 10 mg vs placebo): 7.0% | Pain relief at 2 hours postdose, Stratified Percentage Difference (Zavegepant-Placebo) (zavegepant 10 mg vs placebo): 7.1% | Return to normal function at 30 minutes postdose, Stratified Percentage Difference (Zavegepant-Placebo) (zavegepant 10 mg vs placebo): 2.1% | Return to normal function at 60 minutes postdose, Stratified Percentage Difference (Zavegepant-Placebo) (zavegepant 10 mg vs placebo): 1.8% | Return to normal function at 2 hours postdose, Stratified Percentage Difference (Zavegepant-Placebo) (zavegepant 10 mg vs placebo): 7.1% | Pain relapse from 2 to 48 hours postdose, Stratified Percentage Difference (Zavegepant-Placebo) (zavegepant 10 mg vs placebo): −17.0% | Nausea freedom at 2 hours postdose, Stratified Percentage Difference (Zavegepant-Placebo) (zavegepant 10 mg vs placebo): 2.9% | Phonophobia freedom at 2 hours postdose, Stratified Percentage Difference (Zavegepant-Placebo) (zavegepant 10 mg vs placebo): 10.8% | Photophobia freedom at 2 hours postdose, Stratified Percentage Difference (Zavegepant-Placebo) (zavegepant 10 mg vs placebo): 5.1% | Pain relief at 30 minutes postdose, n/N (%) (zavegepant 10 mg): (29.9) % | Pain relief at 60 minutes postdose, n/N (%) (zavegepant 10 mg): (46.0) % | Rescue medication use within 24 hours postdose, n/N (%) (zavegepant 10 mg): (26.0) % | Sustained pain freedom from 2 to 24 hours postdose, n/N (%) (zavegepant 10 mg): (15.1) % | Sustained pain freedom from 2 to 48 hours postdose, n/N (%) (zavegepant 10 mg): (13.8) % | Sustained pain relief from 2 to 24 hours postdose, n/N (%) (zavegepant 10 mg): (42.5) % | Sustained pain relief from 2 to 48 hours postdose, n/N (%) (zavegepant 10 mg): (39.6) % | Return to normal function at 30 minutes postdose, n/N (%) (zavegepant 10 mg): (7.6) % | Return to normal function at 60 minutes postdose, n/N (%) (zavegepant 10 mg): (18.9) % | Return to normal function at 2 hours postdose, n/N (%) (zavegepant 10 mg): (34.5) % | Pain relapse from 2 to 48 hours postdose, n/N (%) (zavegepant 10 mg): (33.0) % | Nausea freedom at 2 hours postdose, n/N (%) (zavegepant 10 mg): (53.9) % | Phonophobia freedom at 2 hours postdose, n/N (%) (zavegepant 10 mg): (44.8) % | Photophobia freedom at 2 hours postdose, n/N (%) (zavegepant 10 mg): (35.6) % | Pain relief at 2 hours postdose, n/N (%) (zavegepant 20 mg intranasal single dose): (61.2) % | Pain relief at 30 minutes postdose, Stratified Percentage Difference (Zavegepant-Placebo) (zavegepant 20 mg vs placebo): 1.9% | Pain relief at 60 minutes postdose, Stratified Percentage Difference (Zavegepant-Placebo) (zavegepant 20 mg vs placebo): 7.8% | Rescue medication use within 24 hours postdose, Stratified Percentage Difference (Zavegepant-Placebo) (zavegepant 20 mg vs placebo): −7.1% | Sustained pain freedom from 2 to 24 hours postdose, Stratified Percentage Difference (Zavegepant-Placebo) (zavegepant 20 mg vs placebo): 6.7% | Sustained pain freedom from 2 to 48 hours postdose, Stratified Percentage Difference (Zavegepant-Placebo) (zavegepant 20 mg vs placebo): 5.7% | Sustained pain relief from 2 to 24 hours postdose, Stratified Percentage Difference (Zavegepant-Placebo) (zavegepant 20 mg vs placebo): 8.9% | Sustained pain relief from 2 to 48 hours postdose, Stratified Percentage Difference (Zavegepant-Placebo) (zavegepant 20 mg vs placebo): 6.2% | Pain relief at 2 hours postdose, Stratified Percentage Difference (Zavegepant-Placebo) (zavegepant 20 mg vs placebo): 7.5% | Return to normal function at 30 minutes postdose, Stratified Percentage Difference (Zavegepant-Placebo) (zavegepant 20 mg vs placebo): 4.5% | Return to normal function at 60 minutes postdose, Stratified Percentage Difference (Zavegepant-Placebo) (zavegepant 20 mg vs placebo): 1.7% | Return to normal function at 2 hours postdose, Stratified Percentage Difference (Zavegepant-Placebo) (zavegepant 20 mg vs placebo): 7.3% | Pain relapse from 2 to 48 hours postdose, Stratified Percentage Difference (Zavegepant-Placebo) (zavegepant 20 mg vs placebo): −12.5% | Nausea freedom at 2 hours postdose, Stratified Percentage Difference (Zavegepant-Placebo) (zavegepant 20 mg vs placebo): 3.7% | Phonophobia freedom at 2 hours postdose, Stratified Percentage Difference (Zavegepant-Placebo) (zavegepant 20 mg vs placebo): 9.3% | Photophobia freedom at 2 hours postdose, Stratified Percentage Difference (Zavegepant-Placebo) (zavegepant 20 mg vs placebo): 7.4% | Pain relief at 30 minutes postdose, n/N (%) (zavegepant 20 mg): (26.6) % | Pain relief at 60 minutes postdose, n/N (%) (zavegepant 20 mg): (49.8) % | Rescue medication use within 24 hours postdose, n/N (%) (zavegepant 20 mg): (20.2) % | Sustained pain freedom from 2 to 24 hours postdose, n/N (%) (zavegepant 20 mg): (15.7) % | Sustained pain freedom from 2 to 48 hours postdose, n/N (%) (zavegepant 20 mg): (13.2) % | Sustained pain relief from 2 to 24 hours postdose, n/N (%) (zavegepant 20 mg): (44.5) % | Sustained pain relief from 2 to 48 hours postdose, n/N (%) (zavegepant 20 mg): (38.8) % | Return to normal function at 30 minutes postdose, n/N (%) (zavegepant 20 mg): (9.9) % | Return to normal function at 60 minutes postdose, n/N (%) (zavegepant 20 mg): (18.8) % | Return to normal function at 2 hours postdose, n/N (%) (zavegepant 20 mg): (34.7) % | Pain relapse from 2 to 48 hours postdose, n/N (%) (zavegepant 20 mg): (37.6) % | Nausea freedom at 2 hours postdose, n/N (%) (zavegepant 20 mg): (54.7) % | Phonophobia freedom at 2 hours postdose, n/N (%) (zavegepant 20 mg): (43.3) % | Photophobia freedom at 2 hours postdose, n/N (%) (zavegepant 20 mg): (37.9) %
